For the assay, the target named is T1, KITENIN homodimer (Homo sapiens, UniProt Q8TAA9).
T1 construct: Lysates of 293T cells expressing full‐length KITENIN‐myc; expressed in transfected cells; host or cells: Caco2
T1 sequence (Q8TAA9 1-524): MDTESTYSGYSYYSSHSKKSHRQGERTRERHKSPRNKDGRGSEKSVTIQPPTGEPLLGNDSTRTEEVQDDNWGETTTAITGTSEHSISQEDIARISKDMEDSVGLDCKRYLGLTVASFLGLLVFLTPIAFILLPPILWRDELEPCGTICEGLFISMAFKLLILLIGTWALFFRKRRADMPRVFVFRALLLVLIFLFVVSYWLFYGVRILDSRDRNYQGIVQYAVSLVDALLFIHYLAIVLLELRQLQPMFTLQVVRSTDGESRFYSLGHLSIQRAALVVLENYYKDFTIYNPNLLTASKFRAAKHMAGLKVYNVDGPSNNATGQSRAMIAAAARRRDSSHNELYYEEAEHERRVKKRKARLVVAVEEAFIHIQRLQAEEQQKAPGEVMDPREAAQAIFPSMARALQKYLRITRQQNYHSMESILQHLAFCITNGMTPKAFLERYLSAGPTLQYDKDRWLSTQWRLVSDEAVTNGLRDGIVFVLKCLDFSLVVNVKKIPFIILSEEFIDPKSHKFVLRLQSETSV
As to the kind of experiment: In vitro pull-down of purified KITENIN-GST and KITENIN-His. The assay is classed as biochemical. The conditions noted are these: KDIP 5 μM, 4°C, 2 h, GST pull-down. The protocol:
GST‐KITENIN or its derivatives were immobilized on glutathione‐sepharose beads. Myc‐tagged KITENIN was incubated with GST‐tagged KITENIN or its derivative proteins immobilized on glutathione‐sepharose as indicated. The bound protein complexes were eluted and analysed by SDS–PAGE followed by IB. To detect in vitro KITENIN homodimerization, […] GST‐KITENIN was incubated with Ni‐NTA‐purified KITENIN‐His and KDIP (5 μM) in the pull‐down buffer (50‐mM Tris.Cl [pH 7.5], 1‐mM dithiothreitol [DTT] 4% [v/v] glycerol, .1 mg/ml of BSA, 5‐mM MgCl2, 1‐mM ATP and 50‐mM NaCl) at 4°C for 2 h. […]
FIGURE 2 KAI1 C‐terminal interacting tetraspanin (KITENIN) dimerization‐interfering peptide (KDIP) suppresses KITENIN‐induced enhanced cell invasion through the inhibition of the homodimerization of KITENIN. […] After 48 h of treatment, KITENIN transcripts in cells were analysed by the 2^−ΔΔ ^CT method using Q‐PCR. […] Caco2 cells were co‐transfected with KITENIN‐V5/Myc and treated with or without KDIP or scrambled peptide (scr) and were immunoprecipitated with anti‐V5 antibody and detected by indicated antibodies. Numerals indicated a quantification of the MYC bands normalized to the corresponding V5 bands (left panel). […] The histogram represents invading cells, which were counted at four chosen areas and shown by bar graphs (mean ± SEM, n = 4, ^** p < .01). […]

Here are results for 1 sequence from paper PMC9296036, “A peptide interfering with the dimerization of oncogenic KITENIN protein and its stability suppresses colorectal tumour progression” (Clinical and Translational Medicine, 2022).

Ends that are not written are not given here.

As to YARVRRRGPRRWRLVSDEAV [KDIP], the “dimerization of purified KITENIN proteins in vitro (in words)” value was “directly reduced”.
